According to paper PMC10382351, “In vivo evaluation of a novel ^18F-labeled PET radioligand for translocator protein 18 kDa (TSPO) in monkey brain” (European Journal of Nuclear Medicine and Molecular Imaging, 2023):
Values joined by “and” are separate entries in the source; they are usually repeats but may differ in a detail not shown here. Equal values may be shown once.

How the values were obtained:
[1] = Parent radioactivity and radiometabolite analysis in arterial plasma (HPLC); format: in vivo, rhesus monkey; conditions: for Peak parent concentration in arterial plasma: n = 3
Experimental: (§1) Arterial blood sampling was performed in all scans to determine plasma parent concentration of the radioligand. Seventeen blood samples were drawn from an implanted port in the femoral artery of the monkeys during the 180-min PET scans at 15-s intervals for the first two minutes, followed by samples at 3, 5, 10, 30, 60, 90, 120, 150, and 180 min (volumes varied from 1.0 to 5.0 mL). Radioactivity in plasma was quantified and corrected for radiometabolites using high-performance liquid chromatography (HPLC). The separation was performed on an X-Terra C18 column (10 µm, 7.8 × 300 mm) with an isocratic mobile phase composed of methanol: water: triethylamine (77.5:22.5:0.1 by vol.) at a flow rate of 5 mL/min. The plasma free fraction (fP) was measured by ultrafiltration, as previously described. A standard fP was measured in a frozen aliquot of pooled plasma in parallel with the experimental blood sample, and as internal standard it was then used to normalize the measured fP of the blood samples.

[2] = Plasma free fraction (fP) by ultrafiltration; format: in vitro ADME, rhesus monkey; conditions: for Plasma free fraction fP / fraction unbound: n = 3; for fraction unbound: male, rhesus monkey, plasma
Experimental: as §1

TSPO = target: T1, TSPO (Mus musculus, UniProt P50637); test: PET study in mice at baseline and after PK11195; format: in vivo
T1 construct: from tissue; host or cells: living mice, whole-brain ROI, also lung (in vivo PET)
Experimental: Imaging experiments were performed on a microPET Focus 120 camera (Siemens Medical Solution; Knoxville, TN). Mice were anesthetized with 1.5% isoflurane in oxygen at a flow rate of 1 L/min. [^18F]SF51 (150 µL; 2.9 ± 0.6 MBq) was injected intravenously through the tail vein of each mouse. Baseline scans were obtained in 12 mice, and another eight mice were imaged after pre-administration of 5 mg/kg PK11195. Scans were acquired for 120 min. Data were histogrammed into 24 time frames (6 × 20, 5 × 60, 4 × 120, 3 × 300, 3 × 600 and 3 × 1200 s) and reconstructed using Fourier rebinning plus a two-dimensional filtered back projection. No scatter or attenuation corrections were applied. PET images were analyzed using PMOD with a single ROI of the whole brain.

[3] = Ex vivo radioanalysis of mouse brain and plasma 120 min after injection; format: in vivo, mice
Experimental: An ex vivo experiment was performed in another mouse 120 min after [^18F]SF51 injection. Anticoagulated blood was withdrawn from the myocardium, and the brain was extracted. The harvested brain was weighed and immediately underwent radioanalysis. The plasma was separated by centrifugation, and the radioactivity in both whole blood and plasma was measured as previously described.

[4] = representative radiochromatogram, baseline study, at 30 minutes
[5] = mouse, after blockade with PK11195

## CC[C@@H](C)N(C)C(=O)c1nc(-c2cccc([18F])c2)c2ccccc2n1 [[^18F]SF51]
[1]; at 120 min, roughly the same until 180 min, HPLC
  Average percentage of parent in plasma: 25%
[1]; baseline
  Peak parent concentration in arterial plasma: 4.1 ± 0.4 SUV
[1]; blocked with PK11195 5 mg/kg
  Peak parent concentration in arterial plasma: 7.5 ± 1.7 SUV
[1]; monkey arterial plasma, HPLC
  Number of radiometabolites in plasma (more hydrophilic than the parent): At least five
[1]; [4]
  Parent in arterial plasma: 36%
  Total radiometabolites in arterial plasma: 64%
[2]; baseline scans
  Plasma free fraction fP: 6 ± 1%
  fraction unbound: 0.064 ± 0.007
[2]; blocked scans (PK11195)
  Plasma free fraction fP: 19 ± 4%
  fraction unbound: 0.188 ± 0.036
[2]; one monkey, after PBR28 pre-blockade (5 mg/kg)
  fPblock: 19.3%
[2]; one monkey, baseline scan of the PBR28 experiment
  fPbase: 5.7%
[2]; six PET scans
  fP of the internal standard (frozen aliquot of pooled plasma): 2.4 to 3.8%
TSPO; after i.v. 5 mg/kg PK11195
  Blockade of radioligand in mouse brain: about 80%
TSPO; mouse
  Radioactivity in bone: No significant increase in radioactivity
  Uptake in lung (blockable): > 2 SUV
TSPO; [5]
  Peak brain uptake: ~ 2.5 SUV
  Time of peak brain uptake: three
TSPO; mouse, baseline
  Peak brain uptake: ~ 0.8 SUV
  Time of peak brain uptake: around 15 min
TSPO; mouse, last 80 min of scanning, PK11195
  Brain activity after blockade relative to baseline: 25 % of that at baseline
[3]
  Parent radioligand as share of radioactivity in plasma: 9.1%
  Parent radioligand as share of radioactivity in the brain: 96% and 96.4%
